Data on 1 compound can be found in patent US20060281700A1, “SYNERGISTIC MODULATION OF FLT3 KINASE USING AMINOPYRIMIDINES KINASE MODULATORS” (priority 2005, published 2006).

For series [1] the following is noted: cited from earlier work.
The nature of series [2]: Tolerability in MV4-11 tumor-bearing nude mice (body weight, overt clinical signs). Particulars: either agent alone or in combination. On the procedure:
Female athymic nude mice weighing no less than 20-21 grams were inoculated subcutaneously in the left inguinal region of the thigh with 5×10^6 tumor cells in a delivery volume of 0.2 mL. For regression studies, the tumors were allowed to grow to a pre-determined size prior to initiation of dosing. […] Mice were dosed orally by gavage with vehicle (control group) or compound at various doses twice-daily (b.i.d.) during the week and once-daily (q.d.) on weekends. […] If tumors in the control mice reached ˜10% of body weight (˜2.0 grams), the study was to be terminated. […] During the study, tumor growth was measured three times-a-week (M, W, F) using electronic Vernier calipers. Tumor volume (mm^3) was calculated using the formula […], where L=length (mm) and W=width (shortest distance in mm) of the tumor. Body weight was measured three times-a-week and a loss of body weight >10% was used as an indication of lack of compound tolerability. […]
Female athymic nude mice weighing no less than 20-21 grams were inoculated subcutaneously in the left inguinal region of the thigh with 5×10^6 tumor cells in a delivery volume of 0.2 mL. For regression studies, the tumors were allowed to grow to a pre-determined size prior to initiation of dosing. […] During the study, tumor growth was measured three times-a-week (M, W, F) using electronic Vernier calipers. […]

[3] abbreviates: multicenter Phase II trial, relapsed AML.
[4] abbreviates: patients with relapsed and refractory AML, phase I.

As to `Cn1cncc1C(N)(c1ccc(Cl)cc1)c1ccc2c(c1)c(-c1cccc(Cl)c1)cc(=O)n2C` (single isomer, unassigned; (+)) [Tipifarnib, (+)-6-[amino(4-chlorophenyl)(1-methyl-1H-imidazol-5-yl)methyl]-4-(3-chlorophenyl)-1-methyl-2(1H)-quinolinone], in series [1] (setting [3]), the “>50% reduction in bone marrow blasts” value is reported as 31 of 50 and the “complete responses (bone marrow blasts <5%)” value was 17 of 50. Moreover, in series [1] (setting [4]), the “patients achieving complete remission” value was 2 patients and the response rate was around 30%. Also, the overt toxicity entry in series [2] (9-day treatment) is “No overt toxicity”. Also, in series [2] (16-day treatment), the overt toxicity entry is “No overt toxicity”.
